From the SangsterLogP compilation

Assay: method code SF, from DOI: 10.1002/qsar.19890080404

Structure (SMILES) | logP
N#Cc1ccc[nH]1 | 1.13
CCOC(=O)c1c[nH]cc1C | 2.05
O=Cc1c[nH]c2ccccc12 | 1.69
CS(=O)(=O)c1cccs1 | 0.38
O=C(O)c1c[nH]c2ccccc12 | 1.99
O=Cc1ccc[nH]1 | 0.64
CC(=O)Nc1ccc2[nH]c(C)cc2c1 | 1.22
CC(=O)c1c[nH]c2ccccc12 | 2.06
NC(=S)c1cccs1 | 1.34

Assay: not given

Structure (SMILES) | logP
CCOC(=O)c1cc2ccccc2[nH]1 | 3.18
N#Cc1cccc2[nH]ccc12 | 2.46
N#Cc1ccc2[nH]ccc2c1 | 2.36
COc1ccco1 | 1.44
CN(C)C(=O)c1ccco1 | 0.41
CC(=O)C=Cc1ccco1 | 1.35
CCOc1ccc2cc[nH]c2c1 | 2.53
NC(=O)c1cccc2[nH]ccc12 | 0.66
NCc1ccco1 | 0.37
N#Cc1ccc2cc[nH]c2c1 | 2.38
NC(=O)c1ccc2[nH]ccc2c1 | 0.87
O=[N+]([O-])C=Cc1ccco1 | 1.56
CCOC(=O)c1c[nH]c2ccccc12 | 3.04
O=C(c1c[nH]c2ccccc12)C(F)(F)F | 3.44
O=[N+]([O-])c1cccc2cc[nH]c12 | 2.63
CC(=O)Oc1c[nH]c2ccccc12 | 2.01
Clc1cccs1 | 2.54
O=[N+]([O-])c1ccc2sccc2c1 | 2.92
CCOC(=O)c1ccoc1 | 1.78
Clc1cccc2cc[nH]c12 | 3.25
O=[N+]([O-])/C=C/c1cccs1 | 1.96
O=CNc1ccc2[nH]ccc2c1 | 1.07
Brc1ccoc1 | 2.18
COC(=O)c1ccc2[nH]ccc2c1 | 2.58
O=Cc1ccoc1 | 0.51
Cc1cccc2cc[nH]c12 | 2.56
